Experimental data: PMC10817917, “Alkyl deoxyglycoside-polymyxin combinations against critical priority carbapenem-resistant gram-negative bacteria” (Scientific Reports, 2024)
Where “and” joins values, the source holds several entries; their conditions need not be identical. Identical values can stand only once. Like-named read-outs stand apart in the source and are kept apart here.

Columns and labels:
[1] = test system: E. coli NCTC 13846; experiment: Broth microdilution MIC/MBC, glycosides with or without polymyxins; format: cell-based, Escherichia coli; conditions: strain B
[2] = test system: K. pneumoniae CQ1942; experiment: Broth microdilution MIC, glycosides with or without polymyxins; format: cell-based, Klebsiella pneumoniae; conditions: for MIC: Klebsiella pneumoniae, CQ1942
[3] = test system: HEK-293T cells; experiment: Resazurin cell viability assay (cytotoxicity); format: cell-based, human; conditions: 72 h, read-out: IC50
In short: (§1)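 HEK-293T and Caco-2 cells (1.5 × 10^4/well, RPMI 1640 with 10% FBS) exposed 72 h at 37 °C to glycosides at final 100 to 10 µM, alone or with PMB or colistin at final 0.5, 0.25 or 0.125 µg/mL; max DMSO 0.33%. Resazurin added 4 h, read 570/600 nm; IC50 from dose-response fits, mean ± SD of three replicates.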

[4] = test system: Caco-2 cells; experiment: Resazurin cell viability assay (cytotoxicity); format: cell-based, human; conditions: Homo sapiens, Caco-2, 72 h, read-out: IC50
In short: as §1

[5] = test system: Bacillus anthracis (Sterne, ovine and pathogenic forms), Enterococcus faecalis and Bacillus cereus; conditions: Gram-positive bacteria; cited from earlier work
[6] = test system: E. coli ATCC 25922; experiment: Broth microdilution MIC/MBC, glycosides with or without polymyxins; format: cell-based, Escherichia coli; conditions: for MIC: Escherichia coli, ATCC25922
[7] = test system: A. baumannii CQ4322; experiment: as above; format: cell-based, Acinetobacter baumannii; conditions: for MIC: Acinetobacter baumannii, CQ4322
[8] = alone, read-out: MICA (MIC of each compound individually)
[9] = combination with the lowest FICI
[10] = compound + colistin, lowest FICI

CCCCCCCCCCCCO[C@@H]1O[C@H](C)C[C@H](O)[C@H]1O [Compound 2, dodecyl 4,6-dideoxy-α/β-D-xylo-hexopyranoside]
MIC of colistin in combination with the compound ([1]; Cpd conc. 0.4 μg/mL): > 0.5 µg/mL
MIC of colistin in combination with the compound ([1]; Cpd conc. 0.8 μg/mL): > 0.5 µg/mL
MIC of colistin in combination with the compound ([1]; Cpd conc. 3.125 μg/mL): > 0.5 µg/mL
MIC of colistin in combination with the compound ([1]; Cpd conc. 6.25 μg/mL): > 0.5 µg/mL
MIC of colistin in combination with the compound ([1]; Cpd conc. 12.5 μg/mL): > 0.5 µg/mL
MIC of colistin in combination with the compound ([1]; Cpd conc. […]): > 0.5 µg/mL
MIC ([1]; Escherichia coli, NCTC13846, agent alone, no adjuvant (polymyxin conc. 0), read-out: MIC): > 100 µg/mL
MIC of compound in combination with PMB ([1]; PMB 0.25 μg/mL): > 100 µg/mL
MIC of compound in combination with PMB ([1]; PMB 0.5 μg/mL): > 100 µg/mL
MIC of compound in combination with colistin ([1]; colistin 0.06 μg/mL): > 100 µg/mL
MBC of compound in combination with colistin ([1]; colistin 0.125 μg/mL): > 100|> 100 μg/mL
MIC of compound in combination with colistin ([1]; colistin 0.125 μg/mL): > 100|> 100 μg/mL
MIC of compound in combination with colistin ([1]; colistin 0.25 μg/mL): > 100 µg/mL
MIC of compound in combination with colistin ([1]; colistin 0.5 μg/mL): > 100 µg/mL
MIC of colistin in combination with the compound ([2]; Cpd conc. 0.4 μg/mL, strain E): 0.5 µg/mL
MIC of colistin in combination with the compound ([2]; Cpd conc. 0.8 μg/mL, strain E): 0.5 µg/mL
MIC of colistin in combination with the compound ([2]; Cpd conc. 3.125 μg/mL, strain E): 0.5 µg/mL
MIC of colistin in combination with the compound ([2]; Cpd conc. 6.25 μg/mL, strain E): 0.25 µg/mL
MIC of colistin in combination with the compound ([2]; Cpd conc. 12.5 μg/mL, strain E): 0.25 µg/mL
MIC of colistin in combination with the compound ([2]; Cpd conc. […], strain E): 0.5 µg/mL
MIC ([2]; agent alone, no adjuvant (polymyxin conc. 0), strain E, read-out: MIC): > 100 µg/mL
MIC [2, 8]: > 100 µg/mL
MIC of compound in combination with PMB ([2]; PMB 0.25 μg/mL, strain E): > 100 µg/mL
MIC of compound in combination with PMB ([2]; PMB 0.5 μg/mL, strain E): ≤ 0.1 µg/mL
MIC of compound in combination with colistin ([2]; colistin 0.06 μg/mL, strain E): > 100 µg/mL
MIC of compound in combination with colistin ([2]; colistin 0.125 μg/mL, strain E): > 100 µg/mL
MIC of compound in combination with colistin ([2]; colistin 0.25 μg/mL, strain E): 6.3 µg/mL
MIC of compound in combination with colistin ([2]; colistin 0.5 μg/mL, strain E): ≤ 0.1 µg/mL
MICA(A + B) (MIC of compound in combination with colistin) [2, 9]: 6.25 µg/mL
MICB(A + B) (MIC of colistin in combination with compound) [2, 9]: 0.25 µg/mL
Interpretation (of FICI) ([2]; compound + colistin): Additive (from 0.5 to 1.0 were additive)
FICI [2, 10]: 0.53
IC50 ([3]; Homo sapiens, HEK-293T, Colistin 0.25 μg/mL): 80.7 ± 6.08 µM
IC50 ([3]; Homo sapiens, HEK-293T, Colistin 0.5 μg/mL): 84.1 ± 2.87 µM
IC50 ([3]; Homo sapiens, HEK-293T, No polymyxin): 84.2 ± 2.59 µM
IC50 ([3]; Homo sapiens, HEK-293T, PMB 0.25 μg/mL): 84.5 ± 1.52 µM
IC50 ([3]; Homo sapiens, HEK-293T, PMB 0.5 μg/mL): 82 ± 2.9 µM
IC50 ([3]; Homo sapiens, HEK-293T, tested alone (no polymyxin adjuvant)): 26.6 µg/mL
IC50 ([3]; No polymyxin): 84.2 µM
IC50 ([4]; Colistin 0.125 μg/mL): 55.7 ± 0.52 µM
IC50 ([4]; Colistin 0.25 μg/mL): 58.09 ± 0.33 µM
IC50 ([4]; Colistin 0.5 μg/mL): 53.4 ± 5.35 µM
IC50 ([4]; No polymyxin): 54.8 ± 0.61 µM
IC50 ([4]; PMB 0.25 μg/mL): 58.8 ± 2.66 µM
IC50 ([4]; PMB 0.5 μg/mL): 56.4 ± 3.9 µM
IC50 ([4]; tested alone (no polymyxin adjuvant)): 17.4 µg/mL
MIC [5]: > 405 µM
MIC of colistin in combination with the compound ([6]; Cpd conc. 0.4 μg/mL, strain A): > 0.5 µg/mL
MIC of colistin in combination with the compound ([6]; Cpd conc. 0.8 μg/mL, strain A): 0.5 µg/mL
MIC of colistin in combination with the compound ([6]; Cpd conc. 3.125 μg/mL, strain A): ≤ 0.06 µg/mL
MIC of colistin in combination with the compound ([6]; Cpd conc. 6.25 μg/mL, strain A): ≤ 0.06 µg/mL
MIC of colistin in combination with the compound ([6]; Cpd conc. 12.5 μg/mL, strain A): ≤ 0.06 µg/mL
MIC of colistin in combination with the compound ([6]; Cpd conc. […], strain A): 0.5 µg/mL
MIC ([6]; agent alone, no adjuvant (polymyxin conc. 0), strain A, read-out: MIC): > 100 µg/mL
MIC [6, 8]: > 100 µg/mL
MIC of compound in combination with PMB ([6]; PMB 0.5 μg/mL, strain A): 0.8 µg/mL
MIC of compound in combination with colistin ([6]; colistin 0.06 μg/mL, strain A): 3.1 µg/mL
MBC of compound in combination with colistin ([6]; colistin 0.125 μg/mL, strain A): 3.1|3.1 μg/mL
MIC of compound in combination with colistin ([6]; colistin 0.125 μg/mL, strain A): 3.1 μg/mL and 3.1|3.1 μg/mL
MIC of compound in combination with colistin ([6]; colistin 0.25 μg/mL, strain A): 3.1 µg/mL
MIC of compound in combination with colistin ([6]; colistin 0.5 μg/mL, strain A): 0.4 µg/mL
MICA(A + B) (MIC of compound in combination with colistin) [6, 9]: 3.125 µg/mL
MICB(A + B) (MIC of colistin in combination with compound) [6, 9]: 0.06 µg/mL
Interpretation (of FICI) ([6]; compound + colistin): Synergy (Values ≤ 0.5 were considered synergistic)
FICI [6, 10]: 0.14
MIC ([7]; agent alone, no adjuvant (polymyxin conc. 0), strain G, read-out: MIC): > 100 µg/mL
MIC [7, 8]: > 100 µg/mL
MIC of colistin in combination with the compound ([7]; Cpd conc. 0.4 μg/mL, strain G): > 0.5 µg/mL
MIC of colistin in combination with the compound ([7]; Cpd conc. 0.8 μg/mL, strain G): 0.5 µg/mL
MIC of colistin in combination with the compound ([7]; Cpd conc. 3.125 μg/mL, strain G): 0.25 µg/mL
MIC of colistin in combination with the compound ([7]; Cpd conc. 6.25 μg/mL, strain G): 0.125 µg/mL
MIC of colistin in combination with the compound ([7]; Cpd conc. 12.5 μg/mL, strain G): 0.125 µg/mL
MIC of colistin in combination with the compound ([7]; Cpd conc. […], strain G): 0.5 µg/mL
MIC of compound in combination with PMB ([7]; PMB 0.5 μg/mL, strain G): 0.8 µg/mL
MIC of compound in combination with colistin ([7]; colistin 0.06 μg/mL, strain G): > 100 µg/mL
MBC of compound in combination with colistin ([7]; colistin 0.125 μg/mL, strain G): 12.5 µg/mL
MIC of compound in combination with colistin ([7]; colistin 0.125 μg/mL, strain G): 6.3 µg/mL
MIC of compound in combination with colistin ([7]; colistin 0.25 μg/mL, strain G): 3.1 µg/mL
MIC of compound in combination with colistin ([7]; colistin 0.5 μg/mL, strain G): 0.8 µg/mL
MICA(A + B) (MIC of compound in combination with colistin) [7, 9]: 6.25 µg/mL
MICB(A + B) (MIC of colistin in combination with compound) [7, 9]: 0.125 µg/mL
FICI [7, 10]: 0.28
